The structures appear in SMILES notation. Where a name gives a salt, the structure may show the parent alone.

One test relates to SK-MEL-5 cells. Put plainly: Anti proliferative activity in SK-MEL-5 cells by Cell Titer Glo (Promega) assay. The settings on record: retreatment on Day 4, terminated on day 8, CellTiter-Glo. It counts as cell-based. The procedure:
Example-P1: Determination of Anti Proliferative Activity of Compounds in Cell Lines SK-MEL-5 by Cell Titer Glo® (Promega) Assay
Cells were seeded into 96-well plates and the plate was incubated in 37 degrees incubator overnight. The next day, compounds were diluted 3-fold to cover 9-point concentration range in DMSO. Intermediate plate dilution was prepared in media followed with compound treatment in cells. Retreatment of cells with compound dilutions was performed on Day 4 and assay was terminated on day 8 for SK-MEL-5 cells using CellTiter-Glo and the plate was kept on orbital shaker for 20 minutes at RT. Assay was terminated on day 6 for RERF-LC-A1 without a compound retreatment. Luminescence signal was recorded on VICTOR^3 instrument. Percent inhibition of proliferation was calculated at each concentration and plotted against the compound concentration. EC50 value was calculated using GraphPad® software.
A general note: Cellular ATP, detected with luciferase, serves as a proxy for viable cell number.

In another test the test system is MV-4-11 cells. The test is described as follows: Anti proliferative activity in MV-4-11 cells by Cell Titer Glo (Promega) assay. Type of test: cell-based. The settings on record: 3 days, CellTiter-Glo. The procedure:
Example-P2: Determination of Anti Proliferative Activity of Compounds in Cell Lines MV-4-11 by Cell Titer Glo® (Promega) Assay
MV-4-11 (CRL-9591™) cells were seeded in 96 well plate flat black clear bottom plates (Corning, Cat. No 3904) using complete DMEM Medium. Next day, selected compounds of the present invention were added to cells from 10 mM stocks made in DMSO (Sigma Cat no. D2650). Each concentration of compound was tested in triplicate with DMSO concentration at a final percentage not exceeding 0.3 in the cells. After the incubation of MV-4-11 cells with compound for 3 days; assay was terminated using 100 μl of CellTiter Glo® reagent (Promega, Cat. no G7572). CellTiter-Glo® Luminescent reagent determines the number of viable cells based on quantitation of ATP present which is an indicator of cell number and metabolic activity. Luminescence readings were taken in Victor-5 instrument. Percent inhibition of proliferation was calculated using formula, % inhibition=100−(luminescence value of test/luminescence value of DMSO control)*100. DMSO control (0%)=Cells in complete media with DMSO; blank=Media alone containing DMSO. EC50 was calculated using graph pad prism software.

Consider `O=C1CCC(N2C(=O)c3ccc(N4CCN(c5ccc6c(c5)n(C5CCCC5)c5nc(=O)c7c(Br)cccc7n65)CC4)cc3C2=O)C(=O)N1` (stereo not drawn) [Compound 5, 5-(4-(4-bromo-7-cyclopentyl-5-oxo-5,7-dihydrobenzo[4,5]imidazo[1,2-a]quinazolin-9-yl)piperazin-1-yl)-2-(2,6-dioxopiperidin-3-yl)isoindoline-1,3-dione], for which the EC50 (usually the concentration giving half of the maximal effect) with SK-MEL-5 cells (Homo sapiens) is more than 100 nM; in the test on MV-4-11 cells (Homo sapiens, MV4-11, 72 h) it was more than 100 nM.

`O=C1CCC(N2Cc3cc(C4CCN(C5CCN(c6ccc7c(c6)n(C6CCCC6)c6nc(=O)c8ccccc8n76)CC5)CC4)ccc3C2=O)C(=O)N1` (stereo not drawn) [Compound 10, 3-(5-(1′-(7-cyclopenty1-5-oxo-5,7-dihydrobenzo[4,5]imidazo[1,2-a]quinazolin-9-yl)-[1,4′-bipiperidin]-4-yl)-1-oxoisoindolin-2-yl)piperidine-2,6-dione]: the EC50 in the test on SK-MEL-5 cells (Homo sapiens) is more than 100 nM; in the test on MV-4-11 cells (Homo sapiens, MV4-11, 72 h), more than 100 nM.

Turning to `COc1cccc2c1c(=O)nc1n(C3CCCC3)c3cc(N4CCC(N5CCC(c6ccc(NC7CCC(=O)NC7=O)cc6F)CC5)CC4)ccc3n21` (stereo not drawn) [Compound 11, 3-((4-(1′-(7-cyclopentyl-4-methoxy-5-oxo-5,7-dihydrobenzo[4,5]imidazo[1,2-a]quinazolin-9-yl)-[1,4′-bipiperidin]-4-yl)-3-fluorophenyl)amino)piperidine-2,6-dione], the EC50 in the test with SK-MEL-5 cells (Homo sapiens) is more than 100 nM; in the test with MV-4-11 cells (Homo sapiens, MV4-11, 72 h) it was more than 100 nM.

As to `O=C1CCC(Nc2ccc(C3CCN(C4CCN(c5ccc6c(c5)n(C5CCCC5)c5nc(=O)c7c(O)cccc7n65)CC4)CC3)c(F)c2)C(=O)N1` (stereo not drawn) [Compound 12, 3-((4-(1′-(7-cyclopentyl-4-hydroxy-5-oxo-5,7-dihydrobenzo[4,5]imidazo[1,2-a]quinazolin-9-yl)-[1,4′-bipiperidin]-4-yl)-3-fluorophenyl)amino)piperidine-2,6-dione-HCl salt], the EC50 in the test with SK-MEL-5 cells (Homo sapiens) is more than 100 nM; with MV-4-11 cells (Homo sapiens, MV4-11, 72 h) it was more than 100 nM.

On to `O=C1CCC(c2ccc(C3CCN(C4CCN(c5ccc6c(c5)n(C5CCCC5)c5nc(=O)c7c(C(F)(F)F)cccc7n65)CC4)CC3)cc2)C(=O)N1` (stereo not drawn) [Compound 13, 3-(4-(1′-(7-cyclopentyl-5-oxo-4-(trifluoromethyl)-5,7-dihydrobenzo[4,5]imidazo[1,2-a]quinazolin-9-yl)-[1,4′-bipiperidin]-4-yl)phenyl)piperidine-2,6-dione], for which the EC50 was more than 100 nM with SK-MEL-5 cells (Homo sapiens) and more than 100 nM in the test on MV-4-11 cells (Homo sapiens, MV4-11, 72 h).

As for `O=C1CCC(N2Cc3cc(C4CCN(C5CCN(c6ccc7c(c6)n(C6CCCC6)c6nc(=O)c8cnccc8n76)CC5)CC4)ccc3C2=O)C(=O)N1` (stereo not drawn) [Compound 19, 3-(5-(1′-(7-cyclopentyl-5-oxo-5,7-dihydrobenzo[4,5]imidazo[1,2-a]pyrido[3,4-e]pyrimidin-9-yl)-[1,4′-bipiperidin]-4-yl)-1-oxoisoindolin-2-yl)piperidine-2,6-dione], the EC50 in the test with SK-MEL-5 cells (Homo sapiens) was more than 100 nM; in the test on MV-4-11 cells (Homo sapiens, MV4-11, 72 h), more than 100 nM.

With `O=C1CCC(c2ccc(C3CCN(C4CCN(c5ccc6c(c5)n(C5CCCC5)c5nc(=O)c7ncccc7n65)CC4)CC3)cc2)C(=O)N1` (stereo not drawn) [Compound 24, 3-(4-(1′-(7-cyclopentyl-5-oxo-5,7-dihydrobenzo[4,5]imidazo[1,2-a]pyrido[2,3-e]pyrimidin-9-yl)-[1,4′-bipiperidin]-4-yl)phenyl)piperidine-2,6-dione], the EC50 in the test on SK-MEL-5 cells (Homo sapiens) is more than 100 nM; in the test with MV-4-11 cells (Homo sapiens, MV4-11, 72 h), more than 100 nM.

With `Cn1c2cc(N3CCC(N4CCC(c5ccc6c(c5)CN(C5CCC(=O)NC5=O)C6=O)CC4)CC3)ccc2n2c3cccc(Cl)c3c(=O)nc12` (stereo not drawn) [Compound 27, 3-(5-(1′-(4-chloro-7-methyl-5-oxo-5,7-dihydrobenzo[4,5]imidazo[1,2-a]quinazolin-9-yl)-[1,4′-bipiperidin]-4-yl)-1-oxoisoindolin-2-yl)piperidine-2,6-dione], the EC50 with SK-MEL-5 cells (Homo sapiens) was less than 10 nM; with MV-4-11 cells (Homo sapiens, MV4-11, 72 h), less than 10 nM.

As for `CC(C)n1c2cc(N3CCC(N4CCC(c5ccc6c(c5)CN(C5CCC(=O)NC5=O)C6=O)CC4)CC3)ccc2n2c3cccc(Cl)c3c(=O)nc12` (stereo not drawn) [Compound 28, 3-(5-(1′-(4-chloro-7-isopropyl-5-oxo-5,7-dihydrobenzo[4,5]imidazo[1,2-a]quinazolin-9-yl)-[1,4′-bipiperidin]-4-yl)-1-oxoisoindolin-2-yl)piperidine-2,6-dione-HCl salt], the EC50 with SK-MEL-5 cells (Homo sapiens) was less than 10 nM; in the test on MV-4-11 cells (Homo sapiens, MV4-11, 72 h), less than 10 nM.

With `Nc1cccc2c1c(=O)nc1[nH]c3cc(N4CCC(N5CCC(c6ccc(C7CCC(=O)NC7=O)cc6)CC5)CC4)ccc3n12` (stereo not drawn) [Compound 31, 3-(4-(1′-(4-amino-5-oxo-5,7-dihydrobenzo[4,5]imidazo[1,2-a]quinazolin-9-yl)-[1,4′-bipiperidin]-4-yl)phenyl)piperidine-2,6-dione-TFA salt], the concentration for a half-maximal effect (EC50) in the test on SK-MEL-5 cells (Homo sapiens) is more than 100 nM; with MV-4-11 cells (Homo sapiens, MV4-11, 72 h), more than 100 nM.

Consider `Cc1cccc2c1c(=O)nc1n(C3CCCC3)c3cc(N4CCC(N5CCC(c6ccc(NC7CCC(=O)NC7=O)cc6F)CC5)CC4)ccc3n21` (stereo not drawn) [Compound 33, 3-((4-(1′-(7-cyclopentyl-4-methyl-5-oxo-5,7-dihydrobenzo[4,5]imidazo[1,2-a]quinazolin-9-yl)-[1,4′-bipiperidin]-4-yl)-3-fluorophenyl)amino)piperidine-2,6-dione], for which the EC50 with SK-MEL-5 cells (Homo sapiens) is more than 100 nM; in the test on MV-4-11 cells (Homo sapiens, MV4-11, 72 h) it was more than 100 nM.

Regarding `O=C1CCC(Nc2ccc(C3CCN(C4CCN(c5ccc6c(c5)[nH]c5nc(=O)c7c(Br)cccc7n56)CC4)CC3)c(F)c2)C(=O)N1` (stereo not drawn) [Compound 34, 3-((4-(1′-(4-bromo-5-oxo-5,7-dihydrobenzo[4,5]imidazo[1,2-a]quinazolin-9-yl)-[1,4′-bipiperidin]-4-yl)-3-fluorophenyl)amino)piperidine-2,6-dione], the EC50 is more than 100 nM in the test on SK-MEL-5 cells (Homo sapiens) and more than 100 nM in the test with MV-4-11 cells (Homo sapiens, MV4-11, 72 h).

In the case of `Nc1cccc2c1c(=O)nc1n(C3CC3)c3cc(N4CCC(N5CCN(c6ccc(NC7CCC(=O)NC7=O)cc6F)CC5)CC4)ccc3n21` (stereo not drawn) [Compound 37, 3-((4-(4-(1-(4-amino-7-cyclopropyl-5-oxo-5,7-dihydrobenzo[4,5]imidazo[1,2-a]quinazolin-9-yl)piperidin-4-yl)piperazin-1-yl)-3-fluorophenyl)amino)piperidine-2,6-dione], the EC50 in the test on SK-MEL-5 cells (Homo sapiens) is more than 100 nM; in the test with MV-4-11 cells (Homo sapiens, MV4-11, 72 h), more than 100 nM.

As to `O=C1CCC(Nc2ccc(C3CCN(C4CCN(c5ccc6c(c5)n(C5CCCC5)c5nc(=O)c7c(Cl)cccc7n65)CC4)CC3)c(F)c2)C(=O)N1` (stereo not drawn) [Compound 38, 3-((4-(1′-(4-chloro-7-cyclopentyl-5-oxo-5,7-dihydrobenzo[4,5]imidazo[1,2-a]quinazolin-9-yl)-[1,4′-bipiperidin]-4-yl)-3-fluorophenyl)amino)piperidine-2,6-dione], the EC50 in the test on SK-MEL-5 cells and in the test with MV-4-11 cells was less than 10 nM each time.

As for `O=C1CCC(NC(=O)c2ccc(C3CCN(C4CCN(c5ccc6c(c5)n(C5CCCC5)c5nc(=O)c7c(Cl)cccc7n65)CC4)CC3)cc2F)C(=O)N1` (stereo not drawn) [Compound 39, 4-(1′-(4-chloro-7-cyclopentyl-5-oxo-5,7-dihydrobenzo[4,5]imidazo[1,2-a]quinazolin-9-yl)-[1,4′-bipiperidin]-4-yl)-N-(2,6-dioxopiperidin-3-yl)-2-fluorobenzamide], the EC50 in the test on SK-MEL-5 cells (Homo sapiens) is more than 100 nM; with MV-4-11 cells (Homo sapiens, MV4-11, 72 h) it was more than 100 nM.

Values taken from patent publication US20260297094A1, “Tetracyclic Compounds as SMARCA2 and/or SMARCA4 Degraders” (Aurigene Oncology Limited, priority 2023, published 2026).
